Values after ≈ are worked out from the molar mass of the structure shown. “Also recorded” adds a separate entry of the source. Where two headings read alike, the source gives them in different places.
Tests used:
P388 cells = assay: In vitro inhibition of growth of P388 cells, 72 hours (Test Example 3); assay type: cell-based, mouse; conditions: for IC50: Mus musculus; for antitumor activity against P388 cell (in words): compared with other compounds
Protocol: (§1) Furthermore, in order to estimate the antitumor activities of Compound (a) and Compound (b) of this invention represented by the general formula (I), as well as the adriamycinone derivative represented by the formula (II) (namely, Compound (c) of this invention), some "in vitro" tests for inhibiting proliferation of cancer cells were conducted as shown below.
(§2) The above-mentioned Compound (a), Compound (b) or Compound (c) according to this invention were added at varying concentrations to mouse leukemia, P388 cells or adriamycin-resistant P388 cells (P388/ADR) which had been incubated in test tubes containing an appropriate culture medium. The incubation of the tumor cells were then continued for 72 hours from the addition of the test compound, and determination was made to evaluate such concentrations of the test compound which could inhibit the growth of the leukemia cells by 50% (namely, IC50' ng/ml). FT-DM, FT-ADM and adriamycin (as the hydrochloride) were used as comparative compounds and were tested in the same manner as above.

Leukemia L-1210 cells [1] = assay: Antitumor activity against leukemia L-1210 in CDF1 mice, 60-day observation (Test Example 1); assay type: in vivo, mouse; conditions: for % Increase in life-span (T/C, %): 9 days, 60 d observation, '>' = at least one of four mice survived 60 days; for development of toxicity (in words): 2.5 to 5 mg/kg/day for daunomycin, adriamycin, 0.3 to 1.25 mg/kg/day for Compound (b), low dosages for formula (I)
Protocol: Thus, to evaluate the antitumor effects of the new compounds of this invention against experimental tumors in animals, CDF1 mice (four mice per group) were intraperitoneally transplanted with cells of Leukemia L-1210 at an amount of 1×10^5 cells/mouse. Since an elapsed time of 24 hours from the transplantation of the leukemia cells, a test compound according to this invention was administered intraperitoneally to the mice under test for 9 consecutive days once per day. […] While, mice of the control group (the untreated group) were administered with only physiological saline after the transplantation of the L-1210 cells. During the observation period, the numbers of the surviving mice in the treated group and in the control group were counted, and the mean survival days of mice in the treated group and in the control group were then calculated. From the mean survival day (C) of the untreated mice of the control group and the mean survival day (T) of the treated mice of the treated group, there were evaluated percentages (%) of the increase in the life-span of the treated mice, as T/C %. For a comparison purpose, 7-O-(2,6-dideoxy-2-fluoro-α-L-talopyranosyl)daunomycinone (abbreviation: FT-DM); 7-O-(2,6-dideoxy-2-fluoro-α-L-talopyranosyl)adriamycinone (abbreviation: FT-ADM); daunomycin and adriamycin were also tested in the same manner as above. Incidentally, the mean survival day of mice of the control group (the untreated group) was amounting to 8 to 9 days, and the mean survival day of mice of the comparative groups having received the administration of adriamycin was varying dependently on the dosage of adriamycin.

[2] = system: adriamycin-resistant P388 cells (P388/ADR); assay: In vitro inhibition of growth of adriamycin-resistant P388 cells, 72 hours (Test Example 3); assay type: cell-based, mouse; conditions: for IC50: Mus musculus, P388/ADR, 72 hours; for growth inhibition of P388/ADR cell (in words): compared with adriamycin, FT-DM, FT-ADM
Protocol: as §1, §2

Leukemia L-1210 cells [3] = assay: Antitumor activity against leukemia L-1210 in CDF1 mice, 30-day observation (Test Example 2); assay type: in vivo, mouse; conditions: for mice surviving 30 days / mice tested / % Increase in life-span (T/C, %): 9 days; for % Increase in life-span (T/C, %): 30 d observation, '>' = at least one of four mice survived 30 days
Protocol: Since an elapsed time of 24 hours from the transplantation of the leukemia cells, Compound (c) of this invention was administered intraperitoneally to the mice under test for 9 consecutive days once per day. […] While, mice of the control group (the untreated group) were administered with only physiological saline after the transplantation of the L-1210 cells. During the observation period, the numbers of the surviving mice in the treated group and the control group were counted, and the mean survival days of mice in the treated group and in the control group were then calculated. From the mean survival day (C) of the untreated mice of the control group and the mean survival day (T) of the treated mice of the treated group, there were evaluated percentages (%) of the increase in the life-span of the treated mice as T/C %. For a comparison purpose, adriamycin was also tested in the same manner as above.

[4] = human, in vivo; cited from earlier work
[5] = 0.3 mg/kg/day to 1.25 mg/kg/day, about 300% or more

| Compound | antitumor activity in vivo (in words) (Leukemia L-1210 cells [1]) | % Increase in life-span (T/C, %) (Leukemia L-1210 cells [1]; 0.15 mg/kg/day i.p.) [%] | % Increase in life-span (T/C, %) (Leukemia L-1210 cells [1]; 0.3 mg/kg/day i.p.) [%] | % Increase in life-span (T/C, %) (Leukemia L-1210 cells [1]; 0.6 mg/kg/day i.p.) [%] | % Increase in life-span (T/C, %) (Leukemia L-1210 cells [1]; 1.25 mg/kg/day i.p.) [%] | % Increase in life-span (T/C, %) (Leukemia L-1210 cells [1]; 2.5 mg/kg/day i.p.) [%] | % Increase in life-span (T/C, %) (Leukemia L-1210 cells [1]; 5 mg/kg/day i.p.) [%] | IC50 [2] [mg/L] | growth inhibition of P388/ADR cell (in words) [2] | IC50 (P388 cells; P388, 72 hours, read-out: IC50) [mg/L] | antitumor activity against P388 cell (in words) (P388 cells) | development of toxicity (in words) (Leukemia L-1210 cells [1]) | further results |
| --- | --- | --- | --- | --- | --- | --- | --- | --- | --- | --- | --- | --- | --- |
| COc1cccc2c1C(=O)c1c(O)c3c(c(O)c1C2=O)C[C@@](O)(C(C)=O)C[C@@H]3O[C@@H]1O[C@@H](C(F)(F)F)[C@@H](O)[C@@H](O)[C@H]1F [Compound (a), 7-O-(2,6-dideoxy-2,6,6,6-tetrafluoro-α-L-talopyranosyl)daunomycinone] | much higher therapeutic effects against the L-1210 leukemia than daunomycin; also recorded: at low dosages of 0.6 to 1.25 mg/kg exhibited much higher therapeutic effects than FT-DM | 106 | 119 | 132 | 294 | 210 | 158 | 0.028 (≈ 0.0466 µM) | can inhibit the growth of P388/ADR cell at the remarkedly lower concentrations than adriamycin; also recorded: at the substantially same concentrations as or at the lower concentrations than FT-DM and FT-ADM |  |  |  | IC50 (P388 cells; P388, 72 h): < 0.0098 mg/L |
| COc1cccc2c1C(=O)c1c(O)c3c(c(O)c1C2=O)C[C@@](O)(C(=O)CO)C[C@@H]3O[C@@H]1O[C@@H](C(F)(F)F)[C@@H](O)[C@@H](O)[C@H]1F [Compound (b), 7-O-(2,6-dideoxy-2,6,6,6-tetrafluoro-α-L-talopyranosyl)adriamycinone] | remarkedly higher antitumor effects in mice than FT-ADM; also recorded: extraordinarily higher anticancer or antitumor activities than those of adriamycin; also recorded: enhanced anticancer or antitumor activities over the whole range of low dosages of from 0.15 to 1.25 mg/kg of Compound (b), as compared with the comparative drug, FT-ADM | 144 | > 407 | > 459 | > 348 | 233 | 128 | 0.043 (≈ 0.0698 µM) | can inhibit the growth of P388/ADR cell at the remarkedly lower concentrations than adriamycin; also recorded: at the substantially same concentrations as or at the lower concentrations than FT-DM and FT-ADM | < 0.0098 | to a substantially same degree as that of FT-ADM | not accompanied by development of toxicity | percentages of increase in the life-span (Leukemia L-1210 cells [1]; [5]): ≥ 300%; survival for 60 days / cure (in words) (Leukemia L-1210 cells [1]; 0.3 to 1.25 mg/kg): some cases of the complete curing of the L-1210 cell-inoculated mice; also recorded: the mouse which could survive for 60 days (namely, the mouse as fully cured from the leukemia) can be observed |
| COc1cccc2c1C(=O)c1c(O)c3c(c(O)c1C2=O)C[C@@](O)(C(=O)CO)C[C@@H]3O[C@H]1C[C@H](O)[C@H](O)[C@H](C(F)(F)F)O1 [Compound (c), 7-O-(2,6-dideoxy-6,6,6-trifluoro-α-L-lyxo-hexopyranosyl)adriamycinone] |  |  |  |  |  |  |  | 0.17 (≈ 0.284 µM) | higher antitumor activities than adriamycin | < 0.0098 | to a substantially same degree as that of Compound (b) |  | mice surviving 30 days / mice tested (Leukemia L-1210 cells [3]; 0.15 mg/kg/day i.p.): 3/4; % Increase in life-span (T/C, %) (Leukemia L-1210 cells [3]; 0.15 mg/kg/day i.p.): > 335%; mice surviving 30 days / mice tested (Leukemia L-1210 cells [3]; 0.3 mg/kg/day i.p.): 3/4; % Increase in life-span (T/C, %) (Leukemia L-1210 cells [3]; 0.3 mg/kg/day i.p.): > 329%; percentages of increase in the life-span (Leukemia L-1210 cells [3]; [5]): ≥ 300%; mice surviving 30 days / mice tested (Leukemia L-1210 cells [3]; 0.6 mg/kg/day i.p.): 2/4; % Increase in life-span (T/C, %) (Leukemia L-1210 cells [3]; 0.6 mg/kg/day i.p.): > 283%; % Increase in life-span (T/C, %) (Leukemia L-1210 cells [3]; 1.25 mg/kg/day i.p.): 203%; % Increase in life-span (T/C, %) (Leukemia L-1210 cells [3]; 2.5 mg/kg/day i.p.): 194%; % Increase in life-span (T/C, %) (Leukemia L-1210 cells [3]; 5 mg/kg/day i.p.): 135%; complete curing (in words) (Leukemia L-1210 cells [3]; 0.3 to 1.25 mg/kg/day): some cases of the complete curing of the L-1210 cell-inoculated mice; development of toxicity (in words) (Leukemia L-1210 cells [3]; 0.3 to 1.25 mg/kg/day, low dosages): not accompanied by development of toxicity; antitumor activity in vivo (in words) (Leukemia L-1210 cells [3]; 0.6 to 0.15 mg/kg): very much higher anticancer or antitumor activities than those of adriamycin; mice which could survive for 30 days (Leukemia L-1210 cells [3]; amongst totally 12 test mice, 0.6 to 0.15 mg/kg): 8 mice; concentration inhibiting growth of P388/ADR (IC50) relative to that of adriamycin ([2]; 1/3-folds lower than that of adriamycin): 1/3 |
| COc1cccc2c1C(=O)c1c(O)c3c(c(O)c1C2=O)C[C@@](O)(C(C)=O)C[C@@H]3O[C@H]1C[C@H](N)[C@H](O)[C@H](C)O1 [Daunomycin, daunomycin] |  | 132 | 112 | 145 | 158 | 171 | 138 |  |  |  |  | accompanied by development of toxicity | serious side-effects (in words) [4]: serious side-effects such as leukocytopenia, alopecia, myocardiopathy and others |
| COc1cccc2c1C(=O)c1c(O)c3c(c(O)c1C2=O)C[C@@](O)(C(=O)CO)C[C@@H]3O[C@@H]1O[C@@H](C)[C@@H](O)[C@@H](O)[C@H]1F [FT-ADM, 7-O-(2,6-dideoxy-2-fluoro-α-L-talopyranosyl)adriamycinone] |  | 127 | 182 | 185 | 275 | > 352 | > 740 | 0.0928 (≈ 0.165 µM) |  | 0.0034 (≈ 0.00604 µM) |  |  |  |
| COc1cccc2c1C(=O)c1c(O)c3c(c(O)c1C2=O)C[C@@](O)(C(C)=O)C[C@@H]3O[C@@H]1O[C@@H](C)[C@@H](O)[C@@H](O)[C@H]1F [FT-DM, 7-O-(2,6-dideoxy-2-fluoro-α-L-talopyranosyl)daunomycinone] |  | 105 | 105 | 125 | 171 | 217 | 184 | 0.15 (≈ 0.274 µM) |  | 0.033 (≈ 0.0604 µM) |  |  |  |

Source: US5719130A, “Anthracycline derivative having a trifluoromethylated sugar” (Zaidan Hojin Biseibutsu Kagaku Kenkyu Kai, priority 1994, dated 1998)
